Where a name gives a salt, the structure may show the parent alone.
tested on: Acinetobacter baumannii ATCC17978; test: Antimicrobial susceptibility testing: 90% growth inhibitory concentration (IC90) determination; format: cell-based; conditions: ATCC17978, 90% growth inhibitory concentration, Iso-Sensitest broth, optical density at 600 nm over 16h, 35±2° C., read-out: AB ATCC 17978 IC90
Method: (§1) Antimicrobial Susceptibility Testing:
(§2) 90% Growth Inhibitory Concentration (IC90) Determination
(§3) The in vitro antimicrobial activity of the compounds was determined according to the following procedure:
(§4) The assay used a 10-points Iso-Sensitest broth medium to measure quantitatively the in vitro activity of the compounds against Acinetobacter baumannii ATCC17961 or ATCC17978.
(§5) Stock compounds in DMSO were serially twofold diluted (e.g. range from 50 to 0.097 μM final concentration) in 384 wells microtiter plates and inoculated with 49 μl the bacterial suspension in Iso-Sensitest medium to have a final cell concentration of ˜5×10^(5) CFU/ml in a final volume/well of 50 ul/well. Microtiter plates were incubated at 35±2° C.
(§6) Bacterial cell growth was determined with the measurement of optical density at λ=600 nm each 20 minutes over a time course of 16h. Growth inhibition was calculated during the logarithmic growth of the bacterial cells with determination of the concentration inhibiting 50% (IC50) and 90% (IC90) of the growth.
Table 1 provides the 90% growth inhibitory concentrations (IC90) in micromoles per liter of the compounds of present invention obtained against the strain Acinetobacter baumannii ATCC17978.

Compound	IC90 [µM]
CC(=O)Nc1ccc(Nc2nccn3c(-c4ccc(F)cc4F)cnc23)cc1C [Example 83, N-(4-((3-(2,4-difluorophenyl)imidazo[1,2-a]pyrazin-8-yl)amino)-2-methylphenyl)acetamide]	0.7
CC(=O)Nc1ccc(Nc2nccn3c(-c4ccc(Cl)c(F)c4)cnc23)cc1C [Example 84, N-(4-((3-(4-chloro-3-fluorophenyl)imidazo[1,2-a]pyrazin-8-yl)amino)-2-methylphenyl)]	0.17
COc1ccc(-c2cnc3c(Nc4ccc(NC(C)=O)c(C)c4)nccn23)c(Cl)c1 [Example 86, N-(4-((3-(2-chloro-4-methoxyphenyl)imidazo [1,2-a]pyrazin-8-yl)amino)-2-methylphenyl)acetamide]	0.26
CCCCC(=O)NCCOCC(=O)Nc1ccc(Nc2nccn3c(-c4ccc(OC)cc4)cnc23)cc1C [Example 90, N-(2-(2-((4-((3-(4-methoxyphenyl)imidazo[1,2-a]pyrazin-8-yl)amino)-2-methylphenyl)amino)-2-oxoethoxy)ethyl)pentanamide]	0.24
CNS(=O)(=O)c1ccc(Nc2nccn3c(-c4ccc(OC)c(Cl)c4)cnc23)cc1 [Example 91, 4-((3-(3-chloro-4-methoxyphenyl)imidazo[1,2-a]pyrazin-8-yl)amino)-N-methylbenzenesulfonamide]	0.81
CCc1cc(Nc2nccn3c(-c4ccc(OC)c(F)c4F)cnc23)ccc1N [Example 92, N1-(3-(2,3-difluoro-4-methoxyphenyl)imidazo[1,2-a]pyrazin-8-yl)-3-ethylbenzene-1,4-diamine]	0.7
CC1CCC(=O)N1c1ccc(Nc2nccn3c(-c4ccc(OC(F)F)cc4)cnc23)cc1 (stereo not shown) [Example 95, 1-(4-((3-(4-(difluoromethoxy)phenyl)imidazo[1,2-a]pyrazin-8-yl)amino)phenyl)-5-methylpyrrolidin-2-one]	0.38
COc1ccc(-c2cnc3c(Nc4ccc(Cn5ccnc5)c(C)c4)nccn23)cc1 [Example 119, N-[4-(imidazol-1-ylmethyl)-3-methyl-phenyl]-3-(4-methoxyphenyl) imidazo[1,2-a]pyrazin-8-amine]	0.37
COc1ccc(-c2cnc3c(Nc4ccc(CO)c(C)c4)nccn23)cc1 [Example 120]	0.74
Cc1cc(Nc2nccn3c(-c4ccc(OC(F)F)cc4)cnc23)ccc1CO [Example 121, (4-((3-(4-(difluoromethoxy)phenyl)imidazo[1,2-a]pyrazin-8-yl)amino)-2-methylphenyl) methanol]	0.67

More lines, now with the values ahead:

IC90 [µM]	Compound
0.34	CC(=O)Nc1ccc(Nc2nccn3c(-c4ccc(F)c(F)c4)cnc23)cc1C [Example 85, N-(4-((3-(3,4-difluorophenyl)imidazo[1,2-a]pyrazin-8-yl)amino)-2-methylphenyl) acetamide]
0.26	CC(=O)Nc1ccc(Nc2nccn3c(-c4ccc(F)c(F)c4F)cnc23)cc1C [Example 87, N-(2-methyl-4-((3-(2,3,4-trifluorophenyl)imidazo[1,2-a]pyrazin-8-yl)amino)phenyl) acetamide]
0.33	CC(=O)Nc1ccc(Nc2nccn3c(-c4ccc(OCC#N)cc4)cnc23)cc1C [Example 88, N-(4-((3-(4-(cyanomethoxy)phenyl)imidazo[1,2-a]pyrazin-8-yl)amino)-2-methylphenyl) acetamide]
0.28	COc1ccc(-c2cnc3c(Nc4ccc(NC(C)=O)c(C)c4)nccn23)c(F)c1 [Example 89, N-(4-((3-(2-fluoro-4-methoxyphenyl)imidazo [1,2-a]pyrazin-8-yl)amino)-2-methylphenyl) acetamide]
0.54	COc1ccc(-c2cnc3c(Nc4ccc(Cn5ccnc5)cc4)nccn23)cc1 [Example 117, N-[4-(imidazol-1-ylmethyl)phenyl]-3-(4-methoxyphenyl)imidazo[1,2-a]pyrazin-8-amine]

same assay, conditions: ATCC17978, 16 h, read-out: AB ATCC 17978 IC90 (uM)

Compound	IC90 [µM]
CCc1cc(Nc2nccn3c(-c4ccc(OC)c(F)c4F)cnc23)ccc1NC(=O)CCN [Example 93, 3-amino-N-(4-((3-(2,3-difluoro-4-methoxyphenyl)imidazo[1,2-a]pyrazin-8-yl)amino)-2-ethylphenyl)propanamide hydrochloride]	0.18

tested on: Acinetobacter baumannii ATCC17961; test: as above; format: cell-based; conditions: 90% growth inhibitory concentration; Iso-Sensitest broth, optical density at 600 nm over 16h, 35±2° C.; read-out: AB ATCC 17961 IC90
Method: as §1, §2, §3, §4, §5, §6
Table 2 provides the 90% growth inhibitory concentrations (IC90) in micromoles per liter of the compounds of present invention obtained against the strain Acinetobacter baumannii ATCC17961.

Compound	IC90 [nM]
CN=S(C)(=O)c1ccc(Nc2nccn3c(-c4ccc(OC)c(F)c4F)cnc23)cc1C (single isomer, unassigned; (+)) [Example 21, (+)-(4-((3-(2,3-difluoro-4-methoxyphenyl)imidazo[1,2-a]pyrazin-8-yl)amino)-2-methylphenyl)(methyl)(methylimino)-l6-sulfanone]	260
CN=S(C)(=O)c1ccc(Nc2nccn3c(-c4ccc(OC)c(F)c4F)cnc23)cc1C (stereo not shown) [Example 22, 3-(2,3-difluoro-4-methoxy-phenyl)-N-[4-(N,S-dimethylsulfonimidoyl)-3-methyl-phenyl]imidazo[l,2-a]pyrazin-8-amine]	84

The remaining lines, values ahead:

IC90 [nM]	Compound
170	COc1ccc(-c2cnc3c(Nc4ccc(S(C)(=O)=NCCCNC(=O)[C@H]5C[C@H](O)CN5)c(C)c4)nccn23)c(F)c1F (mixture of isomers) [Example 32, rac-(2R,4S)—N-(3-(((4-((3-(2,3-difluoro-4-methoxyphenyl)imidazo[1,2-a]pyrazin-8-yl)amino)-2-methylphenyl)(methyl)oxo)-l6-sulfaneylidene)amino)propyl)-4-hydroxypyrrolidine-2-carboxamide dihydrochloride]
170	CCS(=O)(=NC)c1ccc(Nc2nccn3c(-c4ccc(OC)c(F)c4F)cnc23)cc1Cl (stereo not shown) [Example 24, (2-chloro-4-((3-(2,3-difluoro-4-methoxyphenyl)imidazo[1,2-a]pyrazin-s-yl)amino)phenyl)(ethyl)(methylimino)-l6-sulfanone]

same assay, conditions: Acinetobacter baumannii, ATCC17961, 16 h, 90% growth inhibitory concentration; Iso-Sensitest broth, optical density at 600 nm over 16h, 35±2° C.; read-out: AB ATCC 17961 IC90

Compound	IC90 [nM]
COc1ccc(-c2cnc3c(Nc4ccc(S(C)(=O)=NCCCNC(=O)[C@@H]5C[C@@H](O)CN5)cc4)nccn23)c(F)c1F (mixture of isomers) [Example 33, rac-(2R,4S)-N-(3-(((4-((3-(2,3-difluoro-4-methoxyphenyl)imidazo[1,2-a]pyrazin-8-yl)amino)phenyl) (methyl)(oxo)-16-sulfaneylidene)amino)propyl)-4-hydroxypyrrolidine-2-carboxamide dihydrochloride]	490
COc1ccc(-c2cnc3c(Nc4ccc(NC(C)=O)cc4)nccn23)cc1 [Example 15, N-[4-[[3-(4-methoxyphenyl)imidazo[1,2-a]pyrazin-8-yl]amino]phenyl]acetamide]	600

Continued, values first:

IC90 [nM]	Compound
720	O=C1NCCN1c1ccc(Nc2nccn3c(-c4ccc(OC(F)F)cc4)cnc23)cc1 [Example 3, 1-[4-[[3-[4-(difluoromethoxy)phenyl]imidazo[1,2-a]pyrazin-8-yl]amino]phenyl]imidazolidin-2-one]
300	COc1ccc(-c2cnc3c(Nc4ccc5c(c4)CCC5NCCN)nccn23)c(F)c1F (stereo not shown) [Example 6, N1-(2-aminoethyl)-N5-[3-(2,3-difluoro-4-methoxy-phenyl)imidazo[1,2-a]pyrazin-8-yl]indane-1,5-diamine formic acid]
110	CN=S(C)(=O)c1ccc(Nc2nccn3c(-c4ccc(OC)c(F)c4F)cnc23)cc1Cl (stereo not shown) [Example 23, N-[3-chloro-4-(N,S-dimethylsulfonimidoyl)phenyl]-3-(2,3-difluoro-4-methoxy-phenyl)imidazo[1,2-a]pyrazin-8-amine]
